# No end group written: not given here.
# What was measured:
# Format in all cases: in vivo, BALB/c nude mice
# 5-8F tumours [1] = experiment: Biodistribution and tumour selectivity by whole-body fluorescence imaging, subcutaneous tumour model; conditions: for maximum TBR (tumour-to-background ratio): i.v. 12 μM, tumour region vs ipsilateral auricle
# Description: (§1) Animal experiments were performed in accordance with the approval of Animal Welfare and Ethics Committee of Jinan University (approval number: IACUC-20211210-03). Four-week-old BALB/c nude mice were purchased from the Beijing Vital River Laboratory Animal Technology Co., Ltd. (Beijing, China). Subcutaneous tumour models received a subcutaneous injection of 5-8F (5.0 × 10^6 in 200 μL PBS) in the lower right flank. Experiments were started 10–14 days after tumour implantation, when the tumour diameter was 6–8 mm. Tumour volumes were measured using a Vernier calliper and calculated using the formula for a hemiellipsoid (volume = 0.5236 × length × width^2), as this form best approximated the tumour shape. For orthotopic tumour models, mice were anaesthetised using isoflurane with a precision vaporiser at 1% and injected with 25 μL of 1.1 × 10^5 5-8F-fLuc cells into the nasopharynx using a 28-gauge needle, as previously reported. Mice were fed a specific pathogen-free unit, and animal surgery was performed in a sterile hood. Orthotopic tumours were visualised and tracked by bioluminescence imaging (BLI) using an IVIS® Spectrum In Vivo Imaging System (PerkinElmer, Waltham, MA, USA). Specifically, mice received an intraperitoneal injection of 3 mg/mL luciferin bioluminescent substrate (Perkin Elmer, Waltham, MA, USA) 4 min before imaging.
# Mice with subcutaneous 5-8F tumours were randomly divided into three groups (n = 3 per group). The three groups received intravenous (i.v.) injection with 12 μM FY-35 (dual-target dye), 12 μM FL-35 (single-target dye), and equimolar quantities of free dye, respectively. Fluorescence images were acquired pre-, 2 h, 6 h, 10 h, and 24 h post-injection. The mice in each group were euthanised. The heart, lung, liver, pancreas, spleen, kidney, intestine, and tumour tissues were collected for ex vivo imaging. The MFI was analysed to determine organ biodistribution and tumour selectivity in the three groups. The TBR was calculated by drawing regions of interest within the tumour region and ipsilateral auricle of each mouse.
# 5-8F tumours [2] = experiment: Minimal size of detectable subcutaneous tumours by fluorescence imaging; conditions: 12 μM, n = 8
# Description: as §1, with “Mice were fed a specific pathogen-free unit, and animal surgery was performed in a sterile hood. Orthotopic tumours were visualised and tracked by bioluminescence imaging (BLI) using an IVIS® Spectrum In Vivo Imaging System (PerkinElmer, Waltham, MA, USA). Specifically, mice received an intraperitoneal injection of 3 mg/mL luciferin bioluminescent substrate (Perkin Elmer, Waltham, MA, USA) 4 min before imaging.” left out
# (§2) To identify the minimal size of detectable tumours, subcutaneous tumours of different sizes (1–7 mm; n = 8) were injected with 12 μM FY-35, and imaged at 24 h post-injection to measure MFI in the tumour region. […] Serial sections were cut at a thickness of 10 μm for fluorescence imaging using an inverted microscope (Leica, Wetzlar, Germany), and 4 μm for haematoxylin–eosin (H&E) staining.
# [3] = tested on: 5-8F-fLuc orthotopic tumours; experiment: Fluorescence imaging of orthotopic nasopharyngeal tumours; conditions: orthotopic model, n = 5, i.v. 12 μM, imaged up to 48 h post-injection
# Description: as §1, with “Mice were fed a specific pathogen-free unit, and animal surgery was performed in a sterile hood. Orthotopic tumours were visualised and tracked by bioluminescence imaging (BLI) using an IVIS® Spectrum In Vivo Imaging System (PerkinElmer, Waltham, MA, USA). Specifically, mice received an intraperitoneal injection of 3 mg/mL luciferin bioluminescent substrate (Perkin Elmer, Waltham, MA, USA) 4 min before imaging.” left out
# as §2
Substance,maximum TBR (tumour-to-background ratio) (5-8F tumours [1]; subcutaneous 5-8F tumours),tumour volume at which the MFI increased remarkably (5-8F tumours [2]; 24 h post-injection),"minimum size of detectable tumours (5-8F tumours [2]; imaged 24 h post-injection, subcutaneous tumours 1–7 mm)",contrast improved compared to single-targeted tracer (IR800-FL-35) (5-8F tumours [1]; at 24 h post-injection),"maximum TBR, fold higher than that of IR800-FL-35 (5-8F tumours [1]; subcutaneous 5-8F tumours)",retention of optical contrast in the tumour region [3]
"IR800-FL-35: single-targeted peptide FL-35 labelled with IRDye 800CW (FAEKFKEAVKDYFAKFWDGSGSYTYSTPVWVPLWL; also: IRDye 800CW label, site not given here)",5.99,–,–,–,–,–
"IR800-FY-35: bispecific peptide FY-35 labelled with IRDye 800CW (FAEKFKEAVKDYFAKFWDGSGLTVSPWYLTVSPWY; also: IRDye 800CW label, site not given here)",13.83,32 mm^3,3.9 mm,2.3 fold,2.3 fold,48 h

# From article PMC9496553, “The Dual-Targeted Peptide Conjugated Probe for Depicting Residual Nasopharyngeal Carcinoma and Guiding Surgery” (Biosensors, 2022)
